What is called Ki is a dissociation constant, usually derived from enzyme kinetics or from competition with a known ligand. Lower therefore signals tighter binding.

In the assay the target is Histamine H3 receptor (Macaca mulatta, UniProt G7N499). Nature of the assay: Radioligand Binding Assay. An excerpt: The compounds of this invention have been demonstrated to displace [3H]- methylhistamine radioligand binding to mammalian cell membranes expressing rhesus (Macacca Mulatta) H3 receptor. Additionally, the compounds of this invention have been demonstrated by GTPγS radioligand binding assay to inhibit rhesus H3 constitutive functional activity in cell membranes.
Sequence of Histamine H3 receptor (G7N499 whole entry): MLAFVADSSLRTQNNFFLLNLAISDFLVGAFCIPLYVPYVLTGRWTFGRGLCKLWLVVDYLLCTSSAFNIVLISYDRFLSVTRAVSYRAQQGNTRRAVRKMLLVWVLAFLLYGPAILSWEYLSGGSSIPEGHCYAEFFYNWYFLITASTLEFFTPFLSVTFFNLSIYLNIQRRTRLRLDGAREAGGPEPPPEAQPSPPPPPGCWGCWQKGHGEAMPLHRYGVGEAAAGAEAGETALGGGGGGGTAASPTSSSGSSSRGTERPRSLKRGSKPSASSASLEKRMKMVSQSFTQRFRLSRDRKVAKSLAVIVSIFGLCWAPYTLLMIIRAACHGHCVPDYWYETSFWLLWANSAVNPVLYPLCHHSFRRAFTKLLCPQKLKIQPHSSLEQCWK

The compound `C[C@H]1CCCN1C1CCN(c2ccc(N3CCC4(CCN(C(=O)OC(C)(C)C)CC4)C3=O)c(F)c2)CC1` [US8604046, 79] displayed a Ki of 300 pM. This lies in the sub-nanomolar range.

The record behind these values is BindingDB's records for patent US8604046 (Sanofi, 2013).
